Drawing on ChEMBL document CHEMBL1140630, “Resisting degradation by human elastase: commonality of design features shared by 'canonical' plant and bacterial macrocyclic protease inhibitor scaffolds” (Bioorg Med Chem, 2007), this text covers IC50 and Ki for four compounds.

For one assay, the target named is Pancreatic elastase (Sus scrofa, UniProt P08419+P00772). The experiment in a line: Inhibition of porcine pancreatic elastase. The class given is protein assay.
Assay [1] in a line: Inhibition of subtilisin BPN.
Assay [2] in a line: Inhibition of chymotrypsin.
Assay [3] can be described thus: Inhibition of trypsin.

Structures are written as SMILES. Bridge positions count the residues as written; N and C are the ends. Peptide text beside a SMILES is read from it.

As to `C/C=C1\NC(=O)[C@H]2NC(=O)[C@@H](NC(=O)C(C)C)CCCNC(=O)Nc3cc(O)c(O)cc3C[C@@H](C(=O)N[C@@H](C(C)C)C(=O)O[C@H]2C)N(C)C(=O)[C@H](Cc2ccccc2)N2C(=O)[C@H](CC[C@H]2O)NC1=O`, the IC50 at Pancreatic elastase amounted to 260 nM. For `CSCC[C@@H]1NC(=O)[C@@H](NC(=O)[C@H](C)NC(=O)[C@@H](N)Cc2ccccc2)[C@@H](C)OC(=O)C[C@@H]2NC(=O)[C@H](COC(=O)C[C@@H](C(=O)N[C@@H](CCC(=O)O)C(=O)O)NC(=O)[C@H](CO)NC2=O)NC(=O)[C@@H]2CCCN2C(=O)[C@H](Cc2ccc(O)cc2)NC(=O)[C@H](CCCNC(=N)N)NC1=O` [MARINOSTATIN] (H-FATMRYPSDSDE-OH; ester 3-9, 8-11), the Ki in assay [1] was 1.5 nM; in assay [2] it was 300 nM. `CC(C)C[C@@H](NC(=O)[C@H](O)COS(=O)(=O)O)C(=O)N[C@@H]1C(=O)N[C@@H](CCCNC(=N)N)C(=O)N[C@H]2CC[C@@H](O)N(C2=O)[C@@H](CC(C)C)C(=O)N(C)[C@@H](Cc2ccc(O)cc2)C(=O)N[C@@H](C(C)C)C(=O)O[C@@H]1C`: the Ki in assay [3] came out at 9 nM.

In turn, `CCCC(=O)N[C@@H](C)C(=O)N[C@H](C(=O)N[C@@H]1C(=O)N[C@@H](CC(C)C)C(=O)N[C@@H]2CC[C@H](O)N(C2=O)[C@@H](C(C)O)C(=O)N[C@@H](Cc2ccc(O)c(Cl)c2)C(=O)N[C@@H](C(C)C)C(=O)O[C@H]1C)[C@@H](C)O` (stereo not given in full) [SCYPTOLIN A] showed an IC50 against Pancreatic elastase of 160 nM.
